Data as given in ChEMBL document CHEMBL4118132, “Novel 5-methyl-2-phenylphenanthridium derivatives as FtsZ-targeting antibacterial agents from structural simplification of natural product sanguinarine” (2018).
Values after ≈ are worked out from the molar mass of the structure shown. Active and inactive are the calls of the source. The rule behind the calls is not given here.

Columns and labels:
Pseudomonas aeruginosa = experiment: Antibacterial activity against penicillin-susceptible Pseudomonas aeruginosa ATCC 27853 after 24 hrs by broth microdilution method; type: functional; settings: ATCC 27853, 24 h
Staphylococcus aureus [1] = experiment: Potency index, ratio of oxacillin sodium MIC to test compound MIC for methicillin-resistant Staphylococcus aureus ATCC 43300; type: functional
Staphylococcus aureus [2] = experiment: Antibacterial activity against methicillin-resistant Staphylococcus aureus ATCC 43300 after 24 hrs by broth microdilution method; type: functional; settings: ATCC 43300, 24 h
Streptococcus pyogenes [3] = experiment: Antibacterial activity against penicillin-resistant Streptococcus pyogenes after 24 hrs by broth microdilution method; type: functional
Streptococcus pyogenes [4] = experiment: Antibacterial activity against penicillin-susceptible Streptococcus pyogenes after 24 hrs by broth microdilution method; type: functional
Escherichia coli = experiment: Antibacterial activity against penicillin-susceptible Escherichia coli ATCC 25922 after 24 hrs by broth microdilution method; type: functional; settings: ATCC 25922, 24 h
Staphylococcus aureus [5] = experiment: Potency index, ratio of oxacillin sodium MIC to test compound MIC for penicillin-susceptible Staphylococcus aureus ATCC 25923; type: functional
Bacillus pumilus = experiment: Antibacterial activity against penicillin-susceptible Bacillus pumilus ATCC 63202 after 24 hrs by broth microdilution method; type: functional; settings: ATCC 63202, 24 h
Staphylococcus aureus [6] = experiment: Potency index, ratio of ciprofloxacin MIC to test compound MIC for penicillin-resistant Staphylococcus aureus clinical isolate; type: functional
Bacillus subtilis = experiment: Antibacterial activity against penicillin-susceptible Bacillus subtilis ATCC 9372 after 24 hrs by broth microdilution method; type: functional; settings: ATCC 9372, 24 h
Staphylococcus aureus [7] = experiment: Potency index, ratio of ciprofloxacin MIC to test compound MIC for methicillin-resistant Staphylococcus aureus ATCC 43300; type: functional
Staphylococcus aureus [8] = experiment: Antibacterial activity against penicillin-resistant Staphylococcus aureus clinical isolate after 24 hrs by broth microdilution method; type: functional
[9] = system: Staphylococcus epidermidis; experiment: Antibacterial activity against penicillin-resistant Staphylococcus epidermidis clinical isolate after 24 hrs by broth microdilution method; type: functional
Staphylococcus aureus [10] = experiment: Potency index, ratio of oxacillin sodium MIC to test compound MIC for penicillin-resistant Staphylococcus aureus clinical isolate; type: functional
Staphylococcus aureus [11] = experiment: Bactericidal activity against penicillin-susceptible Staphylococcus aureus ATCC 25923 after 24 hrs by flat colony counting method; type: functional; settings: ATCC 25923, 24 h
Staphylococcus aureus [12] = experiment: Potency index, ratio of ciprofloxacin MIC to test compound MIC for penicillin-susceptible Staphylococcus aureus ATCC 25923; type: functional
Staphylococcus aureus [13] = experiment: Antibacterial activity against penicillin-susceptible Staphylococcus aureus ATCC 25923 after 24 hrs by broth microdilution method; type: functional; settings: ATCC 25923, 24 h
[14] = target: T1, Cell division protein FtsZ (Bacillus subtilis) (UniProt A5Z1V5); experiment: Inhibition of penicillin-susceptible Bacillus subtilis ATCC 9372 N-terminal His6-tagged FtsZ expressed in Escherichia coli BL21 (DE3) cells by fluorescence spectrophotometer-based light scattering assay
T1 sequence (whole entry): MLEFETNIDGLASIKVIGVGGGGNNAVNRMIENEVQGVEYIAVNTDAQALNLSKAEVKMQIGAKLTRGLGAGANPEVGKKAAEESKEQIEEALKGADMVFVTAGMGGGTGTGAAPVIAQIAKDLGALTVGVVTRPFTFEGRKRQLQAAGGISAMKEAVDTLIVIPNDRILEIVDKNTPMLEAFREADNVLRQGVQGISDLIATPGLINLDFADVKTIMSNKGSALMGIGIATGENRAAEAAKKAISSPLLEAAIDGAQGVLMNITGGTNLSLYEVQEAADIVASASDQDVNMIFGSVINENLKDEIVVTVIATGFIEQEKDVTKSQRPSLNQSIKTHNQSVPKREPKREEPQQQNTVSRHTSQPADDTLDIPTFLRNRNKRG

Streptococcus pyogenes [15] = experiment: Potency index, ratio of oxacillin sodium MIC to test compound MIC for penicillin-susceptible Streptococcus pyogenes; type: functional
Streptococcus pyogenes [16] = experiment: Potency index, ratio of ciprofloxacin MIC to test compound MIC for penicillin-susceptible Streptococcus pyogenes; type: functional
[17] = system: Staphylococcus epidermidis; experiment: Potency index, ratio of oxacillin sodium MIC to test compound MIC for penicillin-resistant Staphylococcus epidermidis clinical isolate; type: functional
Streptococcus pyogenes [18] = experiment: Potency index, ratio of ciprofloxacin MIC to test compound MIC for penicillin-resistant Streptococcus pyogenes; type: functional
[19] = system: Staphylococcus epidermidis; experiment: Potency index, ratio of ciprofloxacin MIC to test compound MIC for penicillin-resistant Staphylococcus epidermidis clinical isolate; type: functional
Streptococcus pyogenes [20] = experiment: Potency index, ratio of oxacillin sodium MIC to test compound MIC for penicillin-resistant Streptococcus pyogenes; type: functional
[21] = target: T1, Cell division protein FtsZ (Bacillus subtilis); experiment: Inhibition of FtsZ in penicillin-susceptible Bacillus subtilis ATCC 9372 assessed as increase in length of bacteria at 8 ug/ml after 5 hrs by phase-contrast light microscopic method
[22] = target: T2, Cell division protein FtsZ (Staphylococcus aureus) (UniProt P0A031); experiment: Inhibition of FtsZ in penicillin-susceptible Staphylococcus aureus ATCC 25923 assessed as increase in length of bacteria at 4 ug/ml after 5 hrs by phase-contrast light microscopic method
T2 sequence (whole entry): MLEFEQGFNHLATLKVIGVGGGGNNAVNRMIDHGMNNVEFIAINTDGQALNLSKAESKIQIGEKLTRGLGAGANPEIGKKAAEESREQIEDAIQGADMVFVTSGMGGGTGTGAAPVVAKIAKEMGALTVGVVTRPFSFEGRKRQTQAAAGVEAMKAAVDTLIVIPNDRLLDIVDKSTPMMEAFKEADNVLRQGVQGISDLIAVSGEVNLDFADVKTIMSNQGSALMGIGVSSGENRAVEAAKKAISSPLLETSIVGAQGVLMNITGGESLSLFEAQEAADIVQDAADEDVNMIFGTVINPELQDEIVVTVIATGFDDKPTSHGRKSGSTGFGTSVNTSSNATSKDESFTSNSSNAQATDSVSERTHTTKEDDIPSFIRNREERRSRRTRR

[23] = target: T1, Cell division protein FtsZ (Bacillus subtilis); experiment: Inhibition of penicillin-susceptible Bacillus subtilis ATCC 9372 N-terminal His6-tagged FtsZ expressed in Escherichia coli BL21 (DE3) cells at 10 ug/ml by fluorescence spectrophotometer-based light scattering assay

Compound	MIC (Pseudomonas aeruginosa)	Ratio (Staphylococcus aureus [1])	MIC (Staphylococcus aureus [2])	MIC (Streptococcus pyogenes [3])	MIC (Streptococcus pyogenes [4])	MIC (Escherichia coli)	Ratio (Staphylococcus aureus [5])	MIC (Bacillus pumilus)	Ratio (Staphylococcus aureus [6])	MIC (Bacillus subtilis)	Ratio (Staphylococcus aureus [7])	MIC (Staphylococcus aureus [8])	MIC [9]	Ratio (Staphylococcus aureus [10])	MBC (Staphylococcus aureus [11])	Ratio (Staphylococcus aureus [12])	MIC (Staphylococcus aureus [13])	further results
Cc1cc(-c2ccc(OC(F)(F)F)cc2)cc2c3ccccc3c[n+](C)c12.[Cl-]	> 64 µg/mL	256	0.25 µg/mL	4 µg/mL	2 µg/mL	> 64 µg/mL	67	0.125 µg/mL	4 - 64	0.125 µg/mL	64	1 µg/mL	0.25 µg/mL	16 - 256	16 µg/mL	133	0.06 µg/mL	–
Cc1cc(-c2ccccc2)cc2c3ccccc3c[n+](C)c12.[Cl-]	> 64 µg/mL	16 - 256	2 µg/mL	2 µg/mL	2 µg/mL	> 64 µg/mL	4 - 67	4 µg/mL	4 - 64	1 µg/mL	4 - 164	2 µg/mL	4 µg/mL	16 - 256	32 µg/mL	8 - 133	1 µg/mL	–
Cc1cc(-c2ccc(-c3ccccc3)cc2)cc2c3ccccc3c[n+](C)c12.[Cl-]	> 64 µg/mL	16 - 256	0.5 µg/mL	2 µg/mL	1 µg/mL	> 64 µg/mL	67	0.125 µg/mL	64	0.125 µg/mL	4 - 164	0.25 µg/mL	0.125 µg/mL	256	64 µg/mL	133	0.06 µg/mL	inhibition [14]: Dose-dependent effect; Ratio (Streptococcus pyogenes [15]): 1; Ratio (Streptococcus pyogenes [16]): 8; Ratio [17]: 512; Ratio (Streptococcus pyogenes [18]): 32; Ratio [19]: 512; Ratio (Streptococcus pyogenes [20]): 32
Cc1cc(-c2ccccc2C(F)(F)F)cc2c3ccccc3c[n+](C)c12.[Cl-]	> 64 µg/mL	16 - 256	1 µg/mL	2 µg/mL	2 µg/mL	> 64 µg/mL	4 - 67	2 µg/mL	4 - 64	0.5 µg/mL	4 - 164	1 µg/mL	0.5 µg/mL	16 - 256	32 µg/mL	8 - 133	0.5 µg/mL	–
C[n+]1cc2c3c(ccc2c2ccc4cc5c(cc4c21)OCO5)OCO3.[Cl-] [SANGUINARIUM CHLORIDE]	> 64 µg/mL	–	8 µg/mL	4 µg/mL	4 µg/mL	> 64 µg/mL	–	4 µg/mL	–	4 µg/mL	–	4 µg/mL	8 µg/mL	–	–	–	8 µg/mL	inhibition [21]: Active; inhibition [22]: Active
Cc1ccc(-c2cc(C)c3c(c2)c2ccccc2c[n+]3C)cc1.[Cl-]	> 64 µg/mL	16 - 256	2 µg/mL	4 µg/mL	4 µg/mL	> 64 µg/mL	4 - 67	2 µg/mL	4 - 64	0.5 µg/mL	4 - 164	1 µg/mL	2 µg/mL	16 - 256	32 µg/mL	8 - 133	0.5 µg/mL	–
O=C(O)c1cn(C2CC2)c2cc(N3CCNCC3)c(F)cc2c1=O [CIPROFLOXACIN]	–	–	–	> 64 µg/mL	8 µg/mL (≈ 24.1 µM)	–	–	8 µg/mL (≈ 24.1 µM)	–	2 µg/mL (≈ 6.04 µM)	–	–	–	–	–	–	8 µg/mL (≈ 24.1 µM)	inhibition [23]: Active
COc1ccc(-c2cc(C)c3c(c2)c2ccccc2c[n+]3C)cc1.[Cl-]	> 64 µg/mL	16 - 256	4 µg/mL	8 µg/mL	8 µg/mL	> 64 µg/mL	4 - 67	4 µg/mL	4 - 64	2 µg/mL	4 - 164	4 µg/mL	2 µg/mL	16 - 256	> 64 µg/mL	8 - 133	0.5 µg/mL	–
Cc1cc(-c2cccc(C(F)(F)F)c2)cc2c3ccccc3c[n+](C)c12.[Cl-]	> 64 µg/mL	16 - 256	1 µg/mL	2 µg/mL	1 µg/mL	> 64 µg/mL	4 - 67	0.5 µg/mL	4 - 64	0.25 µg/mL	4 - 164	0.5 µg/mL	0.25 µg/mL	16 - 256	16 µg/mL	8 - 133	0.25 µg/mL	–
